This note sets out measurements from ChEMBL document CHEMBL4732091, “Design, synthesis and biological evaluation of novel thiosemicarbazone-indole derivatives targeting prostate cancer cells” (Eur J Med Chem, 2021).

Test [1] concerns ECa-109 cell line. The test is described as follows: Antiproliferative activity against human ECa-109 cell line cells assessed as inhibition of cell proliferation measured after 72 hrs by MTT assay. The format is functional, cell-based. The conditions noted are these: ECa-109, 72 h.
Test [2] has as its system PC-3. Put plainly: Antiproliferative activity against human PC-3 cells assessed as inhibition of cell proliferation measured after 72 hrs by MTT assay. The conditions noted are these: PC-3, 72 h. The format is functional, cell-based. A general note: Formazan colour is commonly taken as a measure of viable cells.
Test [3] is described as follows: Cytotoxicity against human WPMY-1 cell line cells assessed as inhibition of cell proliferation measured after 72 hrs by MTT assay. Format: cell-based. The conditions noted are these: WPMY-1, 72 h.
Test [4] relates to MGC-803. The test is described as follows: Antiproliferative activity against human MGC-803 cell line cells assessed as inhibition of cell proliferation measured after 72 hrs by MTT assay. The conditions noted are these: MGC-803, 72 h. The format is functional, cell-based.
Test [5] concerns DU-145. The test is described as follows: Antiproliferative activity against human DU-145 cell line cells assessed as inhibition of cell proliferation measured after 72 hrs by MTT assay. The format is functional, cell-based. The conditions noted are these: DU-145, 72 h.
Test [6] deals with MCF7. The test is described as follows: Antiproliferative activity against human MCF7 cell line cells assessed as inhibition of cell proliferation measured after 72 hrs by MTT assay. Format: functional, cell-based. The conditions noted are these: MCF7, 72 h.

Structures are written as SMILES.

Broadly, the IC50 is the concentration needed to halve the response being measured.

Regarding `Cc1[nH]c2ccccc2c1CCNC(=O)c1ccc(NC(=S)N/N=C/c2ccccn2)cc1`, the concentration for half-maximal inhibition (IC50) in test [1] amounted to 3.46 µM; in test [2], 0.091 µM; in test [3], 13.1 µM; in test [4], 8.64 µM; in test [5] it was 3.63 µM; in test [6], 10.3 µM.

With `NC(=S)N/N=C/c1ncccc1N` [TRIAPINE], the IC50 in test [3] came out at 4.96 µM.

On to `Cc1[nH]c2ccccc2c1CCNC(=O)c1ccc(NC(=S)N/N=C/c2ccc(Br)cn2)cc1`, for which the IC50 is 13.9 µM in test [1]; 0.322 µM in test [2]; 1.78 µM in test [3]; over 20 µM in test [4]; 1.9 µM in test [5]; over 20 µM in test [6].

As to `COc1ccc2[nH]cc(CCNC(=O)c3ccc(NC(=S)N/N=C/c4ccccn4)cc3)c2c1`, the 50% inhibitory concentration (IC50) in test [1] was found to be 5.03 µM; in test [2], 0.133 µM; in test [3], 12.3 µM; in test [4], 5.35 µM; in test [5] it was 4.13 µM; in test [6] it was 6.49 µM.

Consider `Cc1ccc(/C=N/NC(=S)NCCc2c[nH]c3ccccc23)nc1`, for which the half-maximal inhibitory concentration (IC50) in test [1] amounted to 4.51 µM; in test [2], 0.601 µM; in test [3], 2.33 µM; in test [4], 5.66 µM; in test [5] it was 3.13 µM; in test [6], 9.1 µM.

As to `COc1ccc2[nH]cc(CCNC(=O)c3ccc(NC(=S)N/N=C/c4ccc(O)cn4)cc3)c2c1`, the IC50 was over 20 µM in test [1]; 2.48 µM in test [2]; over 20 µM in test [3]; over 20 µM in test [4]; 15.2 µM in test [5]; over 20 µM in test [6].

Consider `C/C(=N\Nc1ccc(C(=O)NCCc2c(C)[nH]c3ccccc23)cn1)c1ccccn1`, for which the half-maximal inhibitory concentration (IC50) was found to be 0.664 µM in test [1]; 0.406 µM in test [2]; 0.45 µM in test [3]; 4.22 µM in test [4]; 2.05 µM in test [5]; 0.871 µM in test [6].

As to `Cc1[nH]c2ccccc2c1CCNC(=O)c1ccc(NC(=S)N/N=C/c2ccc(C(=O)O)cn2)cc1`, the IC50 is 16.6 µM in test [1]; 1.6 µM in test [2]; 3.22 µM in test [3]; over 20 µM in test [4]; 5.66 µM in test [5]; over 20 µM in test [6].

For `Cc1ccc(/C=N/NC(=S)Nc2ccc(C(=O)NCCc3c[nH]c4ccc(Cl)cc34)cc2)nc1`, the 50% inhibitory concentration (IC50) in test [1] was determined as 2.4 µM; in test [2], 0.121 µM; in test [3], 7.09 µM; in test [4], 2.67 µM; in test [5], 0.925 µM; in test [6], 7.28 µM.

With `Cc1[nH]c2ccccc2c1CCNC(=O)c1ccc(NC(=S)N/N=C2/C(=O)Nc3ccccc32)cc1`, the IC50 is over 20 µM in test [1]; 17 µM in test [2]; over 20 µM in test [3]; over 20 µM in test [4]; 18.5 µM in test [5]; over 20 µM in test [6].

In the case of `Cc1[nH]c2ccccc2c1CCNC(=O)c1ccc(NC(=S)N/N=C/c2ccc(Cl)cn2)cc1`, the IC50 in test [1] is 14.3 µM; in test [2] it was 0.454 µM; in test [3] it was 1.78 µM; in test [4], 11.1 µM; in test [5], 5.22 µM; in test [6], 10.2 µM.

As to `Cc1ccc(/C=N/NC(=S)Nc2ccc(C(=O)NCCc3c[nH]c4ccccc34)cc2)nc1`, the half-inhibitory concentration (IC50) in test [1] stood at 3.94 µM; in test [2], 0.241 µM; in test [3], 12.5 µM; in test [4], 7.02 µM; in test [5] it was 1.46 µM; in test [6] it was 7.11 µM.

On to `Cc1ncc(CO)c(/C=N/NC(=O)c2ccc(C(=O)NCCc3c(C)[nH]c4ccccc34)cc2)c1O`, for which the IC50 in test [1], in test [2], in test [3], in test [4], in test [5] and in test [6] was over 20 µM throughout.

Consider `COc1ccc2[nH]cc(CCNC(=O)c3ccc(NC(=S)N/N=C(\C)c4ccccn4)cc3)c2c1`, for which the IC50 came out at 6.48 µM in test [1]; 0.947 µM in test [2]; 4.51 µM in test [3]; 4.02 µM in test [4]; 5.88 µM in test [5]; 5.38 µM in test [6].

Take `CN(C(=S)NN=C(c1ccccn1)c1ccccn1)C1CCCCC1`: the half-inhibitory concentration (IC50) in test [3] stood at 0.711 µM.

Regarding `Cc1ccc(/C=N/NC(=S)Nc2ccc(C(=O)NCCc3c[nH]c4ccccc34)cn2)nc1`, the IC50 came out at 12.5 µM in test [1]; 0.512 µM in test [2]; 2.5 µM in test [3]; 7.59 µM in test [4]; 6.15 µM in test [5]; 8.32 µM in test [6].

As for `COc1ccc(/C=N/NC(=S)Nc2ccc(C(=O)NCCc3c(C)[nH]c4ccccc34)cc2)nc1`, the IC50 in test [1] is 5.49 µM; in test [2] it was 0.084 µM; in test [3], over 20 µM; in test [4], 6.33 µM; in test [5] it was 4.08 µM; in test [6] it was 6.28 µM.

In the case of `Cc1ccc(/C=N/NC(=S)NCc2ccc(C(=O)NCCc3c[nH]c4ccccc34)cc2)nc1`, the IC50 in test [1] came out at 18.5 µM; in test [2] it was 1.42 µM; in test [3], 1.09 µM; in test [4], 4.85 µM; in test [5], 1.2 µM; in test [6], 8.62 µM.

Take `Cc1ccc(/C=N/NC(=S)Nc2ccc(C(=O)NCCc3c[nH]c4ccc(C)cc34)cc2)nc1`: the IC50 in test [1] turned out to be 1.63 µM; in test [2], 0.081 µM; in test [3], 10.9 µM; in test [4], 3.12 µM; in test [5], 1.06 µM; in test [6] it was 4.02 µM.

Take `COc1ccc(/C=N/NC(=S)Nc2ccc(C(=O)NCCc3c[nH]c4ccc(OC)cc34)cc2)nc1`: the IC50 is 9.12 µM in test [1]; 0.093 µM in test [2]; over 20 µM in test [3]; 8.92 µM in test [4]; 4.22 µM in test [5]; 1.96 µM in test [6].

Take `Cc1ccc(/C=N/NC(=S)NC2CCC(C(=O)NCCc3c[nH]c4ccccc34)CC2)nc1` (stereo unspecified): the half-inhibitory concentration (IC50) in test [1] was 14.1 µM; in test [2], 2.22 µM; in test [3], 1.56 µM; in test [4], 4.58 µM; in test [5], 2.22 µM; in test [6] it was 8.13 µM.

Turning to `C/C(=N\NC(=S)Nc1ccc(C(=O)NCCc2c(C)[nH]c3ccccc23)cc1)c1ccccn1`, the half-maximal inhibitory concentration (IC50) in test [1] was determined as 6 µM; in test [2] it was 0.707 µM; in test [3], 3.55 µM; in test [4], 6.24 µM; in test [5], 4.02 µM; in test [6], 6.42 µM.

As to `Cc1[nH]c2ccccc2c1CCNC(=O)c1ccc(NC(=S)N/N=C/c2ccc(O)cn2)cc1`, the IC50 was 16.2 µM in test [1]; 1.5 µM in test [2]; over 20 µM in test [3]; over 20 µM in test [4]; 17 µM in test [5]; over 20 µM in test [6].

With `COc1ccc2[nH]cc(CCNC(=O)c3ccc(NC(=S)N/N=C/c4ccc(C)cn4)cc3)c2c1`, the IC50 in test [1] amounted to 5.75 µM; in test [2], 0.061 µM; in test [3] it was 18.1 µM; in test [4] it was 10.4 µM; in test [5] it was 3.22 µM; in test [6] it was 5.33 µM.

Regarding `Cc1[nH]c2ccccc2c1CCNC(=O)c1ccc(C(=O)NO)cc1`, the half-maximal inhibitory concentration (IC50) in test [1], in test [2], in test [3], in test [4], in test [5] and in test [6] was over 20 µM in each case.

For the compound `Cc1[nH]c2ccccc2c1CCNC(=O)c1ccc(NC(=S)N/N=C/c2ccccc2O)cc1`, the 50% inhibitory concentration (IC50) in test [1] is 9.5 µM; in test [2], 5.32 µM; in test [3], 2.87 µM; in test [4] it was over 20 µM; in test [5] it was 14.5 µM; in test [6], over 20 µM.
